Results from EP2998289B1, “COMPOUNDS FOR TARGETING DRUG DELIVERY AND ENHANCING SIRNA ACTIVITY” (NITTO DENKO CORPORATION, priority 2011, dated 2012).

Columns and labels:
gp46 [1] = experiment: pHSC in vitro assay: gp46/HSP47 mRNA knockdown by siRNA formulations, qRT-PCR; conditions: for in vitro (pHSC) % KD: @ 50 nM, label = cationic lipid of the formulation, 2880 min; for in vitro (pHSC) EC50 or % KD: % KD @ 50 nM, 20:20 HEDC:S104 with 2% conjugate
gp46 [2] = experiment: in vivo efficacy, rat DMNQ short-term liver damage model (liver gp46 mRNA)
[3] = @ 0.75 mpk, 20:20 HEDC:S104 with 2% retinoid conjugate

Row | Compound | in vitro (pHSC) % KD (gp46 [1]) | also measured
1 | CCCCCCCC/C=C\CCCCCCCC(=O)OCCCN(CCCOC(=O)CCCCCCC/C=C\CCCCCCCC)C(=O)C[N+](C)(C)CCO.[Br-] [Pr-HE-DODC, 2-(bis(3-(oleoyloxy)propyl)amino)-N-(2-hydroxyethyl)-N,N-dimethyl-2-oxoethanaminium bromide] | 73% @ 50 nM | –
2 | N1,N19-bis((R)-1,8-dioxo-7-(4-((E)-2-(5,5,8,8-tetramethyl-5,6,7,8-tetrahydro-naphthalen-2-yl)prop-1-en-1-yl)benzamido)-1-(4-((E)-2-(5,5,8,8-tetramethyl-5,6,7,8-tetrahydronaphthalen-2-yl)prop-1-en-1-yl)phenyl)-13,16,19-trioxa-2,9-diazadocosan-22-yl)-4,7,10,13,16-pentaoxanonadecane-1,19-diamide [Example 4TTNPB] | – | in vitro (pHSC) EC50 or % KD (gp46 [1]): 34% @ 50 nM
3 | CCCCCCCCCCCCCC(=O)OCCCN(CCCOC(=O)CCCCCCCCCCCCC)C(=O)C[N+](C)(C)CCO.[Br-] [Pr-HEDC, 2-(bis(3-(tetradecanoyloxy)propyl)amino)-N-(2-hydroxyethyl)-N,N-dimethyl-2-oxoethanaminium bromide] | 75% @ 50 nM | –
4 | CCCCCCCCCCCCCC(=O)NCCCC[C@@H](NC(=O)CCCCCCCCCCCCC)C(=O)NCCCOCCOCCOCCCNC(=O)CCOCCOCCOCCOCCOCCC(=O)NCCCOCCOCCOCCCNC(=O)[C@@H](CCCCNC(=O)CCCCCCCCCCCCC)NC(=O)CCCCCCCCCCCCC [Example 4Myr, N1,N19-bis((R)-15,22-dioxo-16-tetradecanamido-4,7,10-trioxa-14,21-diazapenta-triacontyl)-4,7,10,13,16-pentaoxanonadecane-1,19-diamide] | – | in vitro (pHSC) EC50 or % KD (gp46 [1]): 27% @ 50 nM
5 | CCCCCCCCCCCCCC(=O)OCCN(CCOC(=O)CCCCCCCCCCCCC)C(=O)CC[N+](C)(C)CCO.[Br-] [HE-Et-DC, 3-(bis(2-(tetradecanoyloxy)ethyl)amino)-N-(2-hydroxyethyl)-N,N-dimethyl-3-oxopropan-1-aminium bromide] | 70% @ 50 nM | –
6 | CCCCCCCC/C=C\CCCCCCCC(=O)OCCN(CCOC(=O)CCCCCCC/C=C\CCCCCCCC)C(=O)CCC[N+](C)(C)CCO.[Br-] [HE-Pr-DODC, 4-(bis(2-(oleoyloxy)ethyl)amino)-N-(2-hydroxyethyl)-N,N-dimethyl-4-oxobutan-1-aminium bromide] | 75% @ 50 nM | –
7 | CCCCCCCC/C=C\CCCCCCCC(=O)OCCN(CCOC(=O)CCCCCCC/C=C\CCCCCCCC)C(=O)C[N+](C)(CCO)CCO.[Br-] [HE2DODC, 2-(bis(2-(oleoyloxy)ethyl)amino)-N,N-bis(2-hydroxyethyl)-N-methyl-2-oxoethanaminium bromide] | 78% @ 50 nM | –
8 | N1,N19-bis((16S)-16-(3,7-dimethyl-9-(2,6,6-trimethylcyclohex-1-en-1-yl)nonanamido)-24,28-dimethyl-15,22-dioxo-30-(2,6,6-trimethylcyclohex-1-en-1-yl)-4,7,10-trioxa-14,21-diazatriacontyl)-4,7,10,13,16-pentaoxanonadecane-1,19-diamide [satDiVA] | – | in vivo (rat DMNQ) % KD (gp46 [2]; [3]): 74% @ 0.75 mpk; in vitro (pHSC) EC50 or % KD (gp46 [1]): 73% @ 50 nM
9 | CC1=C(/C=C/C(C)=C/C=C/C(C)=C/C(=O)NCCCC[C@H](NC(=O)/C=C(C)/C=C/C=C(C)/C=C/C2=C(C)CCCC2(C)C)C(=O)NCCCOCCOCCOCCCNC(=O)CCOCCOCCOCCOCCOCCC(=O)NCCCOCCOCCOCCCNC(=O)[C@H](CCCCNC(=O)/C=C(C)/C=C/C=C(C)/C=C/C2=C(C)CCCC2(C)C)NC(=O)/C=C(C)/C=C/C=C(C)/C=C/C2=C(C)CCCC2(C)C)C(C)(C)CCC1 [DiVA, N1,N19-bis((S,23E,25E,27E,29E)-16-((2E,4E,6E,8E)-3,7-dimethyl-9-(2,6,6-trimethylcyclohex-1-en-1-yl)nona-2,4,6,8-tetraenamido)-24,28-dimethyl-15,22-dioxo-30-(2,6,6-trimethylcyclohex-1-en-1-yl)-4,7,10-trioxa-14,21-diazatriaconta-23,25,27,29-tetraen-1-yl)-4,7,10,13,16-pentaoxanonadecane-1,19-diamide] | – | in vivo (rat DMNQ) % KD (gp46 [2]; [3]): 60% @ 0.75 mpk; inhibition at 0.05 µM (gp46 [1]; Rattus norvegicus, read-out: in vitro (pHSC) EC50 or % KD): 74%
10 | CCCCCCCC/C=C\CCCCCCCC(=O)OCCN(CCOC(=O)CCCCCCC/C=C\CCCCCCCC)C(=O)CC[N+](C)(C)CCO.[Br-] [HE-Et-DODC, 3-(bis(2-(oleoyloxy)ethyl)amino)-N-(2-hydroxyethyl)-N,N-dimethyl-3-oxopropan-1-aminium bromide] | 71% @ 50 nM | –
11 | CCCCCCCCCCCCCC(=O)OCCN(CCOC(=O)CCCCCCCCCCCCC)C(=O)C[N+](C)(C)CCO.[Br-] [HEDC, 2-(bis(2-(tetradecanoyloxy)ethyl)amino)-N-(2-hydroxyethyl)-N,N-dimethyl-2-oxoethanaminium bromide] | 68% @ 50 nM | in vivo (rat DMNQ) % KD (gp46 [2]; @ 0.5 mpk, label = cationic lipid of the formulation): 52% @ 0.5 mpk
12 | CCCCCCCCCCCCCC(=O)OCCN(CCOC(=O)CCCCCCCCCCCCC)C(=O)CCC[N+](C)(C)CCO.[Br-] [HE-Pr-DC, 4-(bis(2-(tetradecanoyloxy)ethyl)amino)-N-(2-hydroxyethyl)-N,N-dimethyl-4-oxobutan-1-aminium bromide] | 47% @ 50 nM | –
